# From patent US20150352111A1, “Therapeutic Indications of Kinase Inhibitors” (Pulmokine, Inc., priority 2013, published 2015)
# Several values for one entry are separate records, joined by “and”; a condition that tells them apart may be missing. Equal entries are not always repeated. Entries after “also recorded” stand apart in the source; their conditions may differ. Marks after values point to notes of the source that are not given here.
# Columns and labels:
# PDGFR alpha receptor = molecular target: T1, PDGFR alpha receptor (Homo sapiens, UniProt P16234); experiment: Z-lyte in vitro kinase assay (Invitrogen Select Screen); format: biochemical; settings: ATP Km
# T1 construct: purchased Invitrogen (Select Screen service)
# [1] = Systemic blood pressure study in ambulatory MCT treated rats; format: in vivo, rat; settings: inhaled
# Description: Systemic Blood Pressure Study.
# The effect of PK10453 on systemic BP was studied in ambulatory MCT treated rats with DSI PAC40 transmitters implanted in the descending aorta. Three weeks after administration of MCT 60 mg/kg IP, animals inhaled PK10453 or vehicle three times/day with 4 minute exposure each dose for 7 days. Blood pressure was recorded before each morning dose.
# [2] = tested on: phospho-ERK1/2 and total ERK1/2; experiment: NanoPro immunoassay of lung homogenates, MCT+PN model; format: in vivo, rat; settings: D4 and D8 groups compared to vehicle
# Description: (§1) NanoPro Immunoassay. Relative differences in phosphorylated ERK1/2 and STAT isoforms were measured with a NanoPro100® immunoassay system (Protein Simple/Cell Biosciences, CA). See Fan et al., “Nanofluidic proteomic assay for serial analysis of oncoprotein activation in clinical specimens.” Nat Med 15:566-571 (2009).
# [3] = Two chamber plethysmography, rat MCT+PN model; format: in vivo; settings: for TV / MV: MCT+PN, mean
# Description: Plethysmography was performed with an EMKA dual chamber plethysmograph and IOX software. Parameters measured included breathing frequency, tidal volume, minute ventilation, peak inspiratory and expiratory flow, and airway resistance (SRaw). Animals were acclimatized to the plethysmograph for three days prior to first data acquisition. Measurements were made prior to the first dose of drug and at the study's end.
# rat MCT+PN model of PAH [4] = experiment: Histology and morphometric analysis of pulmonary arterioles, MCT+PN model; format: in vivo
# Text: Histology and Morphometric Analysis.
# At the end of the study, the heart and lungs were removed from ventilated animals under general anesthesia. Heparinized saline was infused under pressure through the main pulmonary artery. The right upper lobe was immediately tied off and placed in liquid nitrogen for Western blot and NanoPro 100 assay analysis. The heart was removed, and the RV free wall, interventricular septum and LV free wall dissected and weighed. Buffered formalin (10%) was infused under pressure both through the pulmonary artery and the trachea. Morphometric analysis was performed on H&E stained formalin fixed tissue sectioned at 8 μm. The media area and lumen area of pulmonary arterioles were measured with Image J software by a technician blinded to treatment group. Measurements were made on 20 pulmonary arterioles per section. The ratio of the lumen area to the total media area was determined. This ratio normalizes the variation in total pulmonary arteriole area.
# rat MCT model of PAH = experiment: Efficacy study in the rat MCT model; format: in vivo
# Description: Efficacy Study in the Rat MCT Model.
# Male Sprague Dawley rats received MCT 60 mg/kg IPMCT, and after 3 weeks, PK10453 or vehicle control were administered by inhalation. Four groups were studied: vehicle control (4 min exposure) and three treatment groups of PK10453 with exposure times 2 minutes (D2), 4 minutes (D4), or 8 minutes (D8) three times a day. These regimens were administered for two weeks. The vehicle consisted of aerosolized IM tosylic acid neutralized with ammonia vapor as described above. The pH of a solution prepared by dissolving captured aerosol particles in water was measured for every dose and was consistently in the range of 5.5-6.0. At the end of the study, the RV systolic pressure (RVSP) was measured, and the heart chambers dissected and weighed.
# [5] = tested on: Human pulmonary artery smooth muscle cells; experiment: PASMC proliferation assay (Cyquant NF); format: cell-based; settings: PDGF BB 50 ng/ml, 24 hours, read-out: IC50, PDGF BB stimulated human PA SMC proliferation
# Description: PASMC Proliferation Assay.
# Human pulmonary artery smooth muscle cells were obtained from Cell Applications (San Diego, Calif.) and grown to 50% confluence in a 96 well format. The cells were switched to serum free media 24 hours prior to stimulation with PDGF BB 50 ng/ml and varying concentrations of PK10453. After 24 hours of treatment, a Cyquant NF Cell proliferation assay was performed (Invitrogen®), and the fluorescent signal was measured with a Cytofluor Plate reader. Data is based on an avg. of 8 replicates at each conc.
# rat MCT+PN model of PAH [6] = experiment: Telemetry study of PA pressure in the rat MCT+PN model; format: in vivo
# Description: Efficacy Study in the Rat MCT+PN Model.
# Pneumonectomy and implantation of a TRM53P telemetry monitor in the pulmonary artery (Telemetry Research, New Zealand and ADInstruments, Colorado) was carried out in rats. Two weeks after MCT, PK10453 was administered three times daily for 1 week. Dosing was begun 2 weeks after MCT rather than 3 weeks, because in this more aggressive model the animals developed PAH more quickly and developed distress sooner than in MCT only treated animals (Pulmokine unpublished data). The two groups underwent 4 minute exposures of either the vehicle control or PK10453. Sampling of PA pressure was performed 5 minutes before each morning dose in ambulatory animals in room air (est. pressure 716 mm Hg based on elev. of animal facility).
# pSTAT3/STAT3 = experiment: NanoPro immunoassay of lung extracts, MCT+PN model; format: in vivo, rat; settings: D4 and D8 groups compared to vehicle
# Description: as §1
# PDGFR beta receptor = PDGFR beta receptor (Homo sapiens, UniProt P09619); experiment: Z-lyte in vitro kinase assay (Invitrogen Select Screen); format: biochemical; settings: ATP Km
# Description: In Vitro Kinase Assay. A Z-lyte kinase assay was performed to determine the inhibition of PDGFRalpha and PDGFRbeta mediated phosphorylation by PK10453. Ten point titration curves were modeled to calculate the IC50 (Invitrogen Select Screen®).
# rat MCT+PN model of PAH [7] = experiment: Rat MCT+PN model efficacy: PV loops, RV hypertrophy; format: in vivo; settings: for HR / EF / ESP / CO / EDP / EDV / ESV / SV / SW: MCT+PN, mean, n=4; for EF / ESP: RV
# Description: In a separate cohort of animals, the MCT+PN model was developed as described above, and PK10453 was then administered for 4 minutes or 8 minutes three times a day to the drug treated group. The vehicle control group underwent 4 minute exposures three times a day. Pressure Volume (PV) loops were obtained with an admittance system (Scisense, Inc.) after 14 days of treatment, while rats were under general anesthesia with isoflurane and 100% FiO2.
# PV loop study. The RV end systolic pressure (ESP) was lower and the RV ejection fraction (EF) was higher in both the D4 and D8 treatment groups compared to vehicle control. Cardiac output in the D8 group was increased compared to the Vehicle group. The study animals underwent left pneumonectomy followed 7 days later by MCT 60 mg/kg IP. Two weeks after MCT administration, PK10453 or vehicle were given by inhalation three times a day for two weeks. PV loops were acquired at the end of this period. With respect to Table 3: V=vehicle; D4=4 minute inhalation PK10453; D8=8 minute inhalation PK10453; n=4 each group; *p<0.001; **p≦0.01; §p<0.05 vs. V.
# [8] = Pharmacokinetic study, IV vs inhalation, lung and plasma; format: in vivo, rat; settings: for AUC: rat
# Description: PK10453 was administered intravenously or by inhalation to animals, which were then euthanized at time 0, 10, 20, and 60 minutes (n=3 each time point). Blood samples were taken by cardiac puncture, and the lungs excised. The lungs were homogenized and PK10453 extracted with a 1:3 mixture of acetonitrile:methanol. Similarly, plasma was extracted with a 1:3 mixture of acetonitrile:methanol. Drug was assayed by LC MS/MS (PharmOptima Inc., Portage Mich.). First order exponential curves were fit to the data with Excel. The AUC was determined with the trapezoidal method of integration.
# For the pharmacokinetic study, the concentration of PK10453 in lung when administered by inhalation was compared to the concentration achieved with IV administration. As described in Morén “Aerosols in medicine: principles, diagnosis, and therapy.” Amsterdam; New York: Elsevier. xx, 429 (1993) and Phalen et al., “Inhalation exposure methodology.” Environ Health Perspect 56:23-34 (1984)), it is possible to estimate the pharmacokinetic advantage of inhalation relative to intravenous administration, Rd, by comparing the areas under the curve (AUC) of a plot of the drug concentration as a function of time following respiratory and intravenous (IV) administration:
# Rd=[(AUClung/AUCplasma)respiratory]/[(AUClung/AUCplasma)IV]
# [9] = Body weight, MCT+PN model (FIG. 11); format: in vivo, rat; settings: treated vs. vehicle groups
# Text: FIG. 11 is a graphic representation of subject body weight in vehicle administered and PK10453 treated subjects, where squares indicate vehicle treated (n=10), triangles indicate PK10453 D4 group (n=10), and diamonds indicate PK10453 D8 group (n=6).
# [10] = Fluorescent imaging of lung distribution of inhaled drug with IR780 tracer; format: in vivo, rat; settings: inhalation with IR780 tracer, 2 min exposure
# Description: The spatial distribution of inhaled PK10453 in the lung was evaluated by fluorescent imaging. For this study, a near IR fluorescent tracer, IR-780, was added to the drug solution in the nebulizer. In this way, the dried aerosol particles contained both the drug and IR tracer. After a two minute exposure, animals were placed under general anesthesia underwent intubation via tracheostomy, and the lungs were excised. OCT/PBS was infused via the pulmonary artery, the lung insufflated with air, and the lungs frozen in the vapor phase of liquid nitrogen. Serial approximate 2 mm sections of the lung were made and imaged on a Licor Odyssey Imager.
# PDGFR beta receptor, sequence (P09619 33-1106): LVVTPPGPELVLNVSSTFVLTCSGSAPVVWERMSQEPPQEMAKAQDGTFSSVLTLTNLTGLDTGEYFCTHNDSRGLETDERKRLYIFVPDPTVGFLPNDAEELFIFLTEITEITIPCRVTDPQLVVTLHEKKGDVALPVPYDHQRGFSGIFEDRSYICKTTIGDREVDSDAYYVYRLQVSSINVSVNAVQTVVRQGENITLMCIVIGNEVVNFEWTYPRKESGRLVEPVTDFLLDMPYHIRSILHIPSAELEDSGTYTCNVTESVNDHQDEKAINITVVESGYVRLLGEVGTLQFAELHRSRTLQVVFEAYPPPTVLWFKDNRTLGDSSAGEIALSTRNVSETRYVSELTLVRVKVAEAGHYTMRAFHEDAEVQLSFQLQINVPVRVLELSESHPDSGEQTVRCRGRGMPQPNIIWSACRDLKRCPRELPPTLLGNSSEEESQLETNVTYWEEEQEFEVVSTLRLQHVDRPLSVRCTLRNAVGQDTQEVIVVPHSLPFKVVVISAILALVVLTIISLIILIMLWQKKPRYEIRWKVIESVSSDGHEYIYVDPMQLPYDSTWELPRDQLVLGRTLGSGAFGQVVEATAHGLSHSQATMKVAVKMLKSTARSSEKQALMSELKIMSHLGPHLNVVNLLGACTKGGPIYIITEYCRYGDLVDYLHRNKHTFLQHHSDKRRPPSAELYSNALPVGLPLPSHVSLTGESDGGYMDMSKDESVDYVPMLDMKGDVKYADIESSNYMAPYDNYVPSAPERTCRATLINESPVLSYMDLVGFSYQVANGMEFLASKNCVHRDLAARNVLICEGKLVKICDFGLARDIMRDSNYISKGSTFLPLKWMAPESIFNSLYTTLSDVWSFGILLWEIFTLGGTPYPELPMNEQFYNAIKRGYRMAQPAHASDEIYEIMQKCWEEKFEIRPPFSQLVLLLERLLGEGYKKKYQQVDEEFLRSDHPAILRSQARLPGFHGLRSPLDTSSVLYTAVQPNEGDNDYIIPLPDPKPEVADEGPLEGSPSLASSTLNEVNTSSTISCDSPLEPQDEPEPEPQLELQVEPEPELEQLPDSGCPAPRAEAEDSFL
# T1 sequence (P16234 24-1089): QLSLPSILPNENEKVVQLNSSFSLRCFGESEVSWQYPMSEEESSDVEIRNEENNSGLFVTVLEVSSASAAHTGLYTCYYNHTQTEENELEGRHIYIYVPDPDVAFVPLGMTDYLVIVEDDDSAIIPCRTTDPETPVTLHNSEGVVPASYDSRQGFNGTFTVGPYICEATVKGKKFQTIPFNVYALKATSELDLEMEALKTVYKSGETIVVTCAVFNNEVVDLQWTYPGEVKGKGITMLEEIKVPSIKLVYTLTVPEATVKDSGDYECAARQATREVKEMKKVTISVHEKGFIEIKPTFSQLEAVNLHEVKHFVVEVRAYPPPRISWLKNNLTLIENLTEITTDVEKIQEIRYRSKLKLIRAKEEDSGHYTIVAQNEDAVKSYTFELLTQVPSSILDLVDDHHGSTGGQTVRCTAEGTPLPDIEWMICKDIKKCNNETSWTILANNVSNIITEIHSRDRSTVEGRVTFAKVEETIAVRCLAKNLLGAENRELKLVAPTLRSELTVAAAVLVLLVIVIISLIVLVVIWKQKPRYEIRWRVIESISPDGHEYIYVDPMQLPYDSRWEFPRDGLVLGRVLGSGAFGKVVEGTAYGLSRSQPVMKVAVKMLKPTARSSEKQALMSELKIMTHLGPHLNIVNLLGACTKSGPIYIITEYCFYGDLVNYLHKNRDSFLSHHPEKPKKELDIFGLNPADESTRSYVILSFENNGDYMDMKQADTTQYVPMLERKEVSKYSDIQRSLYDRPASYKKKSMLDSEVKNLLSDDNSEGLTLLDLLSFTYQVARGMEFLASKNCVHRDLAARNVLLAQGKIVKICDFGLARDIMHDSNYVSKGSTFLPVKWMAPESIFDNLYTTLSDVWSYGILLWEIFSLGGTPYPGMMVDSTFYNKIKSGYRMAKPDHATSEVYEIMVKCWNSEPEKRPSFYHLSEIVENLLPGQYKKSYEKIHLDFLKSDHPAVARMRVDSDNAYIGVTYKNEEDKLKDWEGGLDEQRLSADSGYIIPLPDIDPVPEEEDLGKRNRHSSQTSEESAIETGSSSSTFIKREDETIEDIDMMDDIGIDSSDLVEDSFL
structure (smiles),measurement,setting,value
"COc1cc(-c2cncc(N[C@@H](C)c3cccc(NC(=O)c4cncc(C)c4)c3)n2)ccc1O [PK10453, (S)—N-(3-(1-((6-(4-hydroxy-3-methoxyphenyl)pyrazin-2yl)amino)ethyl)phenyl)-5-methylnicotinamide]",IC50,PDGFR alpha receptor,21 nM
same,effect on systemic blood pressure,[1],did not have an adverse effect; also recorded: no significant effect
same,pERK1/ERK1,[2],significant reductions
same,ppERK1/ERK1,[2],significant reductions
same,TV,"[3]; D4, Day1, prior to first dose",1.00 mL
same,MV,"[3]; D4, Day15",176.12§ ml/min
same,TV,"[3]; D4, Day15",0.85 mL
same,TV,"[3]; D8, Day1, prior to first dose",0.74 mL
same,MV,"[3]; D8, Day15",128.49 mL/min
same,TV,"[3]; D8, Day15",0.63 mL
same,effect on lung function,"[3]; inhaled, 2 wk administration course",did not appear to adversely affect; also recorded: no adverse effect
same,lumen area to media area ratio (L/M),rat MCT+PN model of PAH [4]; D4,0.75±0.14
same,lumen area to media area ratio (L/M),rat MCT+PN model of PAH [4]; D8,1.17±0.07
same,RVSP,"rat MCT model of PAH; D2, 2 min inhalation three times a day, two weeks",51.4±6.5 mm Hg
same,reduction in RVSP compared to vehicle,rat MCT model of PAH; D4,44%
same,RVSP,"rat MCT model of PAH; D4, 4 min inhalation three times a day, two weeks",44.4±3.8 mm Hg
same,reduction in RVSP compared to vehicle,rat MCT model of PAH; D8,54%
same,RVSP,"rat MCT model of PAH; D8, 8 min inhalation three times a day, two weeks",37.1±4.5 mm Hg
same,decrease of RV systolic pressure,"rat MCT model of PAH; inhaled, dose group not stated",50%
same,"RV hypertrophy, ratio (RV+IVS)/LV weight","rat MCT model of PAH; inhaled, two weeks",significant reduction
same,IC50,[5],< 500 nM
same,PA systolic pressure,"rat MCT+PN model of PAH [6]; 4 min exposure 3x/day, after five days of treatment",47.3±3.0 mm Hg
same,PA systolic pressure,"rat MCT+PN model of PAH [6]; 4 min exposure 3x/day, treatment day 8",47.3±4.9 mm Hg
same,PA systolic pressure,rat MCT+PN model of PAH [6]; day 0 prior to start of treatment,43.1±3.5 mm Hg
same,pSTAT3/STAT3 ratio,pSTAT3/STAT3,significant reduction
same,IC50,PDGFR beta receptor,15 nM
same,RVSP,rat MCT+PN model of PAH [7]; D4 MCT+PN group (n=4),43.2±6.1 mm Hg
same,RVSP,rat MCT+PN model of PAH [7]; D8 MCT+PN group (n=4),38.4±1.4 mm Hg
same,HR,"rat MCT+PN model of PAH [7]; D4, 4 minute inhalation 3x/day, two weeks",288 bpm
same,EF,rat MCT+PN model of PAH [7]; D4,65.4**
same,ESP,rat MCT+PN model of PAH [7]; D4,43.20* mm Hg
same,CO,rat MCT+PN model of PAH [7]; D4,77.59 mL/min
same,EDP,rat MCT+PN model of PAH [7]; D4,2.62§ mm Hg
same,EDV,rat MCT+PN model of PAH [7]; D4,408.95 µL
same,ESV,rat MCT+PN model of PAH [7]; D4,144.14 µL
same,SV,rat MCT+PN model of PAH [7]; D4,264.81 µL
same,SW,rat MCT+PN model of PAH [7]; D4,9818
same,HR,"rat MCT+PN model of PAH [7]; D8, 8 minute inhalation 3x/day, two weeks",315 bpm
same,EF,rat MCT+PN model of PAH [7]; D8,67.1**
same,ESP,rat MCT+PN model of PAH [7]; D8,38.44* mm Hg
same,CO,rat MCT+PN model of PAH [7]; D8,105.1** ml/min
same,EDP,rat MCT+PN model of PAH [7]; D8,4.87 mm Hg
same,EDV,rat MCT+PN model of PAH [7]; D8,488.68 µL
same,ESV,rat MCT+PN model of PAH [7]; D8,155.40 µL
same,SV,rat MCT+PN model of PAH [7]; D8,333.28** μl
same,SW,rat MCT+PN model of PAH [7]; D8,5481
same,RV hypertrophy,"rat MCT+PN model of PAH [7]; rat MCT+PN, inhaled, two weeks",significant decrease
same,A of Y = AEXP(-bX),[8]; Lung (INH),2498 ng/g lung
same,b of Y = AEXP(-bX),[8]; Lung (INH),0.03 min⁻¹
same,A of Y = AEXP(-bX),[8]; Lung (IV),440 ng/g lung
same,b of Y = AEXP(-bX),[8]; Lung (IV),0.06 min⁻¹
same,A of Y = AEXP(-bX),[8]; Plasma (INH),132.7 ng/g lung
same,b of Y = AEXP(-bX),[8]; Plasma (INH),0.07 min⁻¹
same,A of Y = AEXP(-bX),[8]; Plasma (IV),1260 ng/g lung
same,b of Y = AEXP(-bX),[8]; Plasma (IV),0.07 min⁻¹
same,"Rd, pharmacokinetic advantage of inhalation relative to IV",[8]; [(AUClung/AUCplasma)respiratory]/[(AUClung/AUCplasma)IV],44.6 fold and 45 fold and 44.58 fold
same,AUC,"[8]; inhaled, Plasma (INH)",65.5 ng·h/mL
same,AUC,[8]; Plasma (IV),617 ng·h/mL
same,body weight,[9],trend to a slower rate of decline
same,fluorescence intensity distribution in lung sections,[10],well distributed throughout the lungs
